Reference: PubChem BioAssay AID1963858 (Molecular Pharmacology Branch, DTP, NCI, 2024)
Where “and” joins values, the source holds several entries; their conditions need not be identical. Equal entries are not always repeated.

System: HOP-62 multicell spheroids with HUVEC/MSC, viability
Assay: Anticancer human tumor HOP-62 cell line growth inhibition [KRAS2];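 also: viability read after a week of compound exposure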;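 as to viability, T/C: 100% = DMSO vehicle-treated spheroids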
Details: for viability, T/C: stronger effect = lower value
How it was run: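 Combination screen of spheroid viability in tumor-cell co-cultures with endothelial (HUVEC) and mesenchymal stem cell stroma. Each agent was tested in half-log dilutions, topping at clinical Cmax or at 10 microM without a known Cmax.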

[1] = curve of first compound, second compound 0.1 µM
[2] = curve of first compound, second compound 0.316 µM
[3] = curve of first compound, second compound 1 µM
[4] = curve of first compound, second compound 3.16 µM
[5] = curve of first compound, second compound 10 µM
[6] = second compound 0.1 µM, first compound 0.000316 µM
[7] = second compound 0.1 µM, first compound 0.001 µM
[8] = second compound 0.1 µM, first compound 0.00316 µM
[9] = second compound 0.1 µM, first compound 0.01 µM
[10] = second compound 0.1 µM, first compound 0.0316 µM
[11] = second compound 0.316 µM, first compound 0.000316 µM
[12] = second compound 0.316 µM, first compound 0.001 µM
[13] = second compound 0.316 µM, first compound 0.00316 µM
[14] = second compound 0.316 µM, first compound 0.01 µM
[15] = second compound 0.316 µM, first compound 0.0316 µM
[16] = second compound 1 µM, first compound 0.000316 µM
[17] = second compound 1 µM, first compound 0.001 µM
[18] = second compound 1 µM, first compound 0.00316 µM
[19] = second compound 1 µM, first compound 0.01 µM
[20] = second compound 1 µM, first compound 0.0316 µM
[21] = second compound 3.16 µM, first compound 0.000316 µM
[22] = second compound 3.16 µM, first compound 0.001 µM
[23] = second compound 3.16 µM, first compound 0.00316 µM
[24] = second compound 3.16 µM, first compound 0.01 µM
[25] = second compound 3.16 µM, first compound 0.0316 µM
[26] = second compound 10 µM, first compound 0.000316 µM
[27] = second compound 10 µM, first compound 0.001 µM
[28] = second compound 10 µM, first compound 0.00316 µM
[29] = second compound 10 µM, first compound 0.01 µM
[30] = second compound 10 µM, first compound 0.0316 µM
[31] = second compound 0.1 µM, first compound 0.1 µM
[32] = second compound 0.1 µM, first compound 0.316 µM
[33] = second compound 0.1 µM, first compound 1 µM
[34] = second compound 0.1 µM, first compound 3.16 µM
[35] = second compound 0.316 µM, first compound 0.1 µM
[36] = second compound 0.316 µM, first compound 0.316 µM
[37] = second compound 0.316 µM, first compound 1 µM
[38] = second compound 0.316 µM, first compound 3.16 µM
[39] = second compound 1 µM, first compound 0.1 µM
[40] = second compound 1 µM, first compound 0.316 µM
[41] = second compound 1 µM, first compound 1 µM
[42] = second compound 1 µM, first compound 3.16 µM
[43] = second compound 3.16 µM, first compound 0.1 µM
[44] = second compound 3.16 µM, first compound 0.316 µM
[45] = second compound 3.16 µM, first compound 1 µM
[46] = second compound 3.16 µM, first compound 3.16 µM
[47] = second compound 10 µM, first compound 0.1 µM

For CC1OCC2(CCN(c3cnc(Sc4ccnc(N)c4Cl)c(N)n3)CC2)C1N (stereo not drawn), the viability, T/C (compound 0.0316 µM) was 103% (2×) and 77%, the viability, T/C (compound 0.1 µM) was 92.2% [middle of 19 runs] and the IC50 (compound alone, run of 07/12/2021) was 2.29 µM [middle of 6 runs]. The IC50 (curve of compound) was > 10 µM and 3.82 µM and 9.82 µM.

CC(=O)Nc1cccc(-n2c(=O)n(C3CC3)c(=O)c3c(Nc4ccc(I)cc4F)n(C)c(=O)c(C)c32)c1 + COc1cc2nc(C)nc(NC(C)c3cc(N)cc(C(F)(F)F)c3)c2cc1OC1CCOC1 showed an IC50 [1] of 0.0025 µM, an IC50 [2] of 0.00301 µM and an IC50 [3] of 0.00201 µM. The IC50 [4] was 0.000494 µM, the IC50 [5] was < 0.0001 µM and the viability, T/C (second compound 0.1 µM, first compound 0.0001 µM) was 111%. It also gave a viability, T/C [6] of 79%, a viability, T/C [7] of 77.8% and a viability, T/C [8] of 42.5%. For the same molecule, the viability, T/C [9] was 25.5%, the viability, T/C [10] was 23.8% and the viability, T/C (second compound 0.316 µM, first compound 0.0001 µM) was 85.2%. For the same molecule, the viability, T/C [11] was 91.4%, the viability, T/C [12] was 79.9% and the viability, T/C [13] was 49.2%. It also gave a viability, T/C [14] of 24.9%, a viability, T/C [15] of 24.5% and a viability, T/C (second compound 1 µM, first compound 0.0001 µM) of 84.1%. For the same molecule, the viability, T/C [16] was 75.8%, the viability, T/C [17] was 75.5% and the viability, T/C [18] was 33.6%. For the same molecule, the viability, T/C [19] was 24.9%, the viability, T/C [20] was 25.2% and the viability, T/C (second compound 3.16 µM, first compound 0.0001 µM) was 58.1%. For the same molecule, the viability, T/C [21] was 50.5%, the viability, T/C [22] was 45.8% and the viability, T/C [23] was 29.2%. The viability, T/C [24] was 21.9%, the viability, T/C [25] was 22.7% and the viability, T/C (second compound 10 µM, first compound 0.0001 µM) was 39.6%. The viability, T/C [26] was 33.7%, the viability, T/C [27] was 31.4% and the viability, T/C [28] was 27.8%. The viability, T/C [29] was 25.3% and the viability, T/C [30] was 22.1%.

For CC(=O)OC12COC1CC(O)C1(C)C(=O)C(O)C3=C(C)C(OC(=O)C(O)C(NC(=O)OC(C)(C)C)c4ccccc4)CC(O)(C(OC(=O)c4ccccc4)C21)C3(C)C (stereo not drawn) + C=CC(=O)N1CCN(c2nc(OCC3CCCN3C)nc3c2CCN(c2cccc4cccc(C)c24)C3)CC1CC#N, the IC50 (curve of first compound, second compound 0.0316 µM) was < 0.01 µM, the IC50 [1] was < 0.01 µM and the IC50 [2] was < 0.01 µM. For the same molecule, the IC50 [3] was < 0.01 µM, the IC50 [4] was < 0.01 µM and the viability, T/C (second compound 0.0316 µM, first compound 0.01 µM) was 31.2%. The viability, T/C (second compound 0.0316 µM, first compound 0.0316 µM) was 26.2%, the viability, T/C (second compound 0.0316 µM, first compound 0.1 µM) was 26.6% and the viability, T/C (second compound 0.0316 µM, first compound 0.316 µM) was 28.6%. The viability, T/C (second compound 0.0316 µM, first compound 1 µM) was 30.2%, the viability, T/C (second compound 0.0316 µM, first compound 3.16 µM) was 35.1% and the viability, T/C [9] was 19.4%. For the same molecule, the viability, T/C [10] was 22.7%, the viability, T/C [31] was 20.7% and the viability, T/C [32] was 20.1%. It also gave a viability, T/C [33] of 23.2%, a viability, T/C [34] of 23.2% and a viability, T/C [14] of 18.7%. It also gave a viability, T/C [15] of 20.1%, a viability, T/C [35] of 17.5% and a viability, T/C [36] of 16.9%. For the same molecule, the viability, T/C [37] was 20.2%, the viability, T/C [38] was 19.9% and the viability, T/C [19] was 18.7%. For the same molecule, the viability, T/C [20] was 12.1%, the viability, T/C [39] was 17.1% and the viability, T/C [40] was 16.2%. For the same molecule, the viability, T/C [41] was 18.2%, the viability, T/C [42] was 18.9% and the viability, T/C [24] was 27.7%. The viability, T/C [25] was 26.9%, the viability, T/C [43] was 23.2% and the viability, T/C [44] was 28.5%. The viability, T/C [45] was 25.5% and the viability, T/C [46] was 27.6%.

CC1(C)CCC(CN2CCN(c3ccc(C(=O)NS(=O)(=O)c4ccc(NCC5CCOCC5)c([N+](=O)[O-])c4)c(Oc4cnc5[nH]ccc5c4)c3)CC2)=C(c2ccc(Cl)cc2)C1 + C=CC(=O)N1CCN(c2nc(=O)n(-c3c(C)ccnc3C(C)C)c3nc(-c4c(O)cccc4F)c(F)cc23)C(C)C1 was tested, and the IC50 [1] was < 0.0316 µM, the IC50 [2] was 2.16 µM and the IC50 [3] was 2.01 µM. For the same molecule, the IC50 [4] was 3.67 µM, the IC50 [5] was < 0.0316 µM and the viability, T/C [10] was 46.2%. For the same molecule, the viability, T/C [31] was 49.4%, the viability, T/C [32] was 50.5% and the viability, T/C [33] was 43.1%. The viability, T/C [34] was 39.1%, the viability, T/C (second compound 0.1 µM, first compound 10 µM) was 12.1% and the viability, T/C [15] was 53.4%. The viability, T/C [35] was 51.9%, the viability, T/C [36] was 57.7% and the viability, T/C [37] was 56.2%. It also gave a viability, T/C [38] of 47.1%, a viability, T/C (second compound 0.316 µM, first compound 10 µM) of 20.5% and a viability, T/C [20] of 55%. It also gave a viability, T/C [39] of 57.1%, a viability, T/C [40] of 50.8% and a viability, T/C [41] of 52.6%. For the same molecule, the viability, T/C [42] was 48%, the viability, T/C (second compound 1 µM, first compound 10 µM) was 13% and the viability, T/C [25] was 64.9%. It also gave a viability, T/C [43] of 58.9%, a viability, T/C [44] of 48.7% and a viability, T/C [45] of 54.4%. For the same molecule, the viability, T/C [46] was 55.7%, the viability, T/C (second compound 3.16 µM, first compound 10 µM) was 12.2% and the viability, T/C [30] was 43.7%. The viability, T/C [47] was 46.5%, the viability, T/C (second compound 10 µM, first compound 0.316 µM) was 41.4% and the viability, T/C (second compound 10 µM, first compound 1 µM) was 41.5%. For the same molecule, the viability, T/C (second compound 10 µM, first compound 3.16 µM) was 32% and the viability, T/C (second compound 10 µM, first compound 10 µM) was 16.2%.

In the case of Cn1ncnc1[C@H]1c2n[nH]c(=O)c3cc(F)cc(c23)N[C@@H]1c1ccc(F)cc1 + C=CC(=O)N1CCN(c2nc(=O)n(-c3c(C)ccnc3C(C)C)c3nc(-c4c(O)cccc4F)c(F)cc23)C(C)C1, the IC50 [1] is reported as 0.0233 µM, the IC50 [2] is reported as 0.0135 µM and the IC50 [3] is reported as > 0.1 µM. The IC50 [4] was > 0.1 µM, the IC50 [5] was < 0.000316 µM and the viability, T/C [6] was 64.7%. The viability, T/C [7] was 68.3%, the viability, T/C [8] was 51.5% and the viability, T/C [9] was 58.3%. For the same molecule, the viability, T/C [10] was 46.8%, the viability, T/C [31] was 43.5% and the viability, T/C [11] was 68.5%. For the same molecule, the viability, T/C [12] was 69.2%, the viability, T/C [13] was 53% and the viability, T/C [14] was 56.1%. The viability, T/C [15] was 41.5%, the viability, T/C [35] was 41.5% and the viability, T/C [16] was 61.9%. It also gave a viability, T/C [17] of 63.8%, a viability, T/C [18] of 63% and a viability, T/C [19] of 54.4%. The viability, T/C [20] was 61%, the viability, T/C [39] was 59.4% and the viability, T/C [21] was 66.6%. The viability, T/C [22] was 64.3%, the viability, T/C [23] was 57% and the viability, T/C [24] was 66.9%. The viability, T/C [25] was 52.9%, the viability, T/C [43] was 49% and the viability, T/C [26] was 40.1%. It also gave a viability, T/C [27] of 46.6%, a viability, T/C [28] of 42.9% and a viability, T/C [29] of 36.4%. For the same molecule, the viability, T/C [30] was 38% and the viability, T/C [47] was 33.9%.

CN(C)C/C=C/C(=O)Nc1cc2c(Nc3ccc(F)c(Cl)c3)ncnc2cc1O[C@H]1CCOC1 was tested, and the viability, T/C (compound 0.000316 µM) was 105% and 110% and 102% (2×), the viability, T/C (compound 0.001 µM) was 114% (2×) and 107% and 102% (2×) and the viability, T/C (compound 0.00316 µM) was 104% [middle of 5 runs]. For the same molecule, the viability, T/C (compound 0.01 µM) was 104% [middle of 5 runs], the viability, T/C (compound 0.0316 µM) was 105% [middle of 5 runs] and the viability, T/C (compound 0.1 µM) was 102% [middle of 5 runs]. For the same molecule, the IC50 (curve of compound) was > 0.1 µM.

For CC1(C)CCC(CN2CCN(c3ccc(C(=O)NS(=O)(=O)c4ccc(NCC5CCOCC5)c([N+](=O)[O-])c4)c(Oc4cnc5[nH]ccc5c4)c3)CC2)=C(c2ccc(Cl)cc2)C1, the viability, T/C (compound 0.0316 µM) was 97.8% [middle of 5 runs], the viability, T/C (compound 0.1 µM) was 98.4% [middle of 5 runs] and the viability, T/C (compound 0.316 µM) was 93.6% [middle of 5 runs]. For the same molecule, the viability, T/C (compound 1 µM) was 89.2% [middle of 5 runs], the viability, T/C (compound 3.16 µM) was 73.1% [middle of 5 runs] and the viability, T/C (compound 10 µM) was 26.2% [middle of 5 runs]. For the same molecule, the IC50 (curve of compound) was 5.7 µM [middle of 5 runs].
